Consider 3 compounds from patent US7217831B2 (priority 2001, dated 2007).

The test system of assay [1] is Helicoverpa armigera larvae. As to the kind of experiment: Glasshouse trial on geranium seedlings, racemic and isomeric C1 (Example 20). The format is in vivo. The following applies: Trial 1; 25 mM dose sprayed on geranium.
The next assay concerns Helicoverpa spp. larvae. As to the kind of experiment: Field trial, commercial cotton crop, Kununurra (Example 19). The format is in vivo, Helicoverpa armigera. The following applies: C1 plus EDTA 1.0 kg/ha each.

Regarding `CC(C)[C@H](NCP(=O)(O)O)C(=O)O` [D-C1, N-phosphonomethyl valine], in assay [1], the “Estimated leaf damage (%) at 7 DAA” value was 55% and the “Mean number of larvae/leaf at 7 DAA” value stood at 3.5.
With `O=C(O)CN(CCN(CC(=O)O)CC(=O)O)CC(=O)O` [EDTA, ethylenediaminetetraacetic acid], in the assay on Helicoverpa spp. larvae (3 days after application, C1 2.0 kg/ha, EDTA 2.0 kg/ha), the “Mean number TLVA*/10 Terminals, 3 DAA” value amounted to 6.0. For the same compound, in the assay with Helicoverpa spp. larvae (EDTA alone 2.0 kg/ha), the “efficacy against Helicoverpa spp. infesting cotton (in words)” value is given as “no apparent influence on larval survival”. The “Mean number TLVA*/10 Terminals, −1 DAA” value with Helicoverpa spp. larvae (pre-application count, C1 2.0 kg/ha, EDTA 2.0 kg/ha) is 0.0.
In the case of `CC(C)[C@H](NCP(=O)(O)O)C(=O)O` [L-C1, N-phosphonomethyl valine], in assay [1], the “Estimated leaf damage (%) at 7 DAA” value is 35% and the “Mean number of larvae/leaf at 7 DAA” value was 2.3.
